Assay results: ChEMBL document CHEMBL4385591, “Structural studies of the binding of an antagonistic cyclic peptide to the VEGFR1 domain 2” (Eur J Med Chem, 2019)
Activity calls are given as the source filed them. The calls are words filed in the database; no cut-off is given here. Peptide text beside a SMILES is read from it.

Tests used:
HUVEC = details: Homo sapiens, 50 uM
Description: Antiangiogenic activity in HUVEC cells assessed as inhibition of VEGF-A-induced microtube formation at 50 uM pre-incubated for 15 mins followed by VEGF-A stimulation for 4 hrs by matrigel based capillary tube formation assay

RF/6A = details: Macaca mulatta, 50 uM
Description: Antiangiogenic activity in rhesus monkey RF/6A cells assessed as inhibition of VEGF-A-induced microtube formation at 50 uM pre-incubated for 15 mins followed by VEGF-A stimulation for 4 hrs by matrigel based capillary tube formation assay

## CC(C)C[C@@H]1NC(=O)CNC(=O)[C@H](CCC(=O)O)NC(=O)[C@H](CC(=O)O)NC(=O)[C@H](CCCCN)NC(=O)[C@H](Cc2ccc(O)cc2)NC(=O)CC[C@@H](C(=O)NCCc2ccc(O)c(O)c2)NC(=O)[C@H](CCC(=O)O)NC1=O (HELM PEPTIDE1{Y.K.D.E.G.L.E.E.[Oc1ccc(CCN[*:1])cc1O]}$PEPTIDE1,PEPTIDE1,1:R1-8:R3$$$V2.0)
HUVEC
  inhibition: Active
RF/6A
  inhibition: Active
